Measured values reported in the NIST ThermoML archive (doi:10.1021/je100624p).
Numbers after ± are expanded uncertainties.

Conditions: Liquid, Closed cell (Static) method

| vapor or sublimation pressure (303.15 K) [kPa] | vapor or sublimation pressure (313.15 K) [kPa] | vapor or sublimation pressure (308.15 K) [kPa] | vapor or sublimation pressure (318.15 K) [kPa] | SMILES |
| --- | --- | --- | --- | --- |
| 10.43 ± 0.29 | 17.84 ± 0.32 |  |  | CCO [ethanol] |
| 7.933 ± 0.28 |  | 10.72 ± 0.29 |  | CC(C)O [propan-2-ol] |
| 4.186 ± 0.27 | 7.346 ± 0.27 | 5.493 ± 0.27 | 9.493 ± 0.27 | O [water] |
